Laboratory results reported in patent US12570643B2, “3-aryloxy-3-five-membered heteroaryl propylamine compound, and crystal form and use thereof” (Shanghai Leado Pharmatech Co. Ltd., priority 2019, dated 2026).

Assays:
[1] = biological target: T1, TRPA1 (Mus musculus, UniProt Q8BLA8); assay: TRPA1 inhibitory activity, IonWorks Barracuda (IWB) automatic patch clamp detection; format: cell-based; settings: HEK293 cells stably expressing TRPA1, AITC-induced current; read-out: IC50(μM) against TRPA1 in automatic patch clamp detection
T1 construct: expressed in transfected cells; host or cells: HEK293 cells stably expressing TRPA1
Protocol: In this example, the compounds prepared in some examples of the present invention (shown in Table 1) were tested for their inhibitory activity on the transient receptor potential channel protein TRPA1. Wherein, compound of formula A (WO2010075353) was used as positive control: […]
Test method by using IonWorks Barracuda (IWB) automatic patch clamp detection: HEK293 cells stably expressing TRPA1 were placed in a 37° C., 5% CO2 incubator and incubated with DMEM medium containing 15 μg/mL Blasticidin S HCl, 200 μg/mL Hygromycin B and 10% FBS serum in a T175 culture flask. When the cell density grew to […], the culture medium was removed, the cells were washed with calcium and magnesium free phosphate buffered saline (PBS), and 3 mL of Trypsin was added and digested for 2 minutes, and 7 mL of culture medium was added to terminate the digestion. […]
Data recording and current amplitude measurement and export were completed by IWB Software (version 2.5.3, Molecular Devices Corporation, Union City, CA). The statistics of the well with a sealing impedance lower than 20 M Ω were not recorded. The original current data was corrected by software, the TRPA1 current amplitude was measured in +100 mV. […] The dose-effect curve and IC50 of compounds were fitted and calculated by GraphPad Prism 5.02 (GraphPad Software, San Diego, CA).

[2] = tested on: postoperative pain model in rat; assay: Postoperative pain model in rat, mechanical hyperalgesia test; format: in vivo; settings: 10 mg/kg intramuscular injection
Protocol: Injection of compound I-1: 36.13 mg of compound I-1 prepared in Example 2 was weighed and added into 3.140 mL of normal saline, and well mixed by vortex;
The solvent of the test compound I-1 was normal saline, the administration dose was 10 mg/kg, and the administration method was intramuscular injection. 36.13 mg of the compound I-1 was weighed and added into 3.140 mL normal saline, and well mixed by vortex. The reference compound used in the experiment was bupivacaine injection, purchased from Shanghai Zhaohui Pharmaceutical Co., Ltd., in a dose of 10 mg/kg via intramuscular injection.
Aseptic operation was performed during surgery, surgical instruments (scissors, forceps, scalpel, surgical cotton, suture thread) were disinfected before the operation. The rats were anesthetized with sodium pentobarbital (50 mg/kg, intraperitoneal injection), and the toes of the rats were squeezed to confirm that the animals were completely anesthetized before the surgery. Ophthalmic ointment was applied to the animal's eyes to prevent the animal's cornea from drying out. Iodophor and 70% ethanol were used to disinfect the skin of the surgery area on the sole of the left hind foot three times, and the surgery was started after the skin was dried. Starting at 0.5 cm from the heel, a 1 cm long incision was made longitudinally toward the toe. After cutting the skin, the flexor digitorum brevis was lifted to make longitudinal blunt injury. After pressing to stop the bleeding, the wound was sutured. The surgical instruments were cleaned and sterilized with hot bead sterilizer. After the surgery, the animals were placed on an electric blanket and injected subcutaneously with 5 mL normal saline to prevent dehydration. When the animal was completely awake (free to move), put the animal back into the cage. […]
The rat was placed alone in a plexiglass box with a grid on the bottom of the box to ensure that the rat's feet can be tested. […] During the test, the animal's rapid foot shrinkage was recorded as a pain response. The animal's foot shrinkage when the test fiber left the animal's skin was also recorded as a pain response. If the animal moved or walked, it would not be recorded as the pain response, the test should be repeated. […] The mechanical hyperalgesia test results are recorded in the table of FIG. 10, in which pain response is indicated with an “x” and no pain response is indicated with an “o.”
Mechanical hyperalgesia was expressed as the paw withdrawal threshold (PWT) in the behavioral test of rats, which was calculated according to the following equation: 50% response threshold (g)=(10(Xf+k))/10,000 • Xf=the final test fiber value used in the test • K=table value (Chaplan et al. 1994, page 62) • □=Average difference 5. […]

[3] = tested on: formalin pain model in mice; assay: Formalin pain model in mice; format: in vivo, C57BL/6 mice; settings: Mus musculus, ip; intraperitoneal, phase II (10-60 min), dose that halves licking time vs blank control; read-out: analgesic potency ED50 in phase II pain
Description: 150 C57BL/6 mice (male, 9 weeks) were randomly divided into 15 groups with 10 mice for each group, and were used for the analgesic activity test of 3 compounds in the formalin pain model in mice: the compound I-1 group (compound I-1 prepared in Example 2, its hydrochloride was used in the experiment), the S-duloxetine group (its hydrochloride was used in the experiment) and the compound C1 group (compound C1 prepared in Comparative Example 1, its hydrochloride was used in the experiment), respectively. Before the start of the experiment, the mice were allowed to adapt to the experimental environment for 72 hours, during which there was no need to fast for food or water. The tested drugs were administrated by intraperitoneal injection, and the doses were as follows: • The compound I-1 group: blank Vehicle (blank normal saline control), 0.1 mg/kg, 0.5 mg/kg, 1 mg/kg, 5 mg/kg and 10 mg/kg; • The S-duloxetine group: blank Vehicle (blank normal saline control), 1 mg/kg, 5 mg/kg, 10 mg/kg and 20 mg/kg; • The Compound C1 group: blank Vehicle (blank normal saline control), 0.1 mg/kg, 0.5 mg/kg, 1 mg/kg, 5 mg/kg and 10 mg/kg.
After the administration, the mice were placed in a transparent, ventilated plexiglass cylinder, and 1 hour later, 20 μl of 4% formalin solution was injected into the left hind foot plantar of each group of mice with a micro-injector, and foot pain response in mice were recorded in real time with a miniature camera. The length of time of licking the left foot was used as an indicator of pain response, the licking time were observed and recorded during two periods of 0-10 min (phase I) and 10-60 min (phase II) respectively, for statistical analysis, and the half effective dose (ED50) of the 3 compounds were calculated: ED50 refers to the drug dose that reduces the licking time by half compared with the blank control group. The smaller the ED50 value is, the lower the effective analgesic dose of the compound is and the better its analgesic effect is.

[4] = tested on: acetic acid writhing pain model in mice; assay: Acetic acid writhing pain model in mice; format: in vivo, ICR mice; settings: 10 mg/kg intragastric, acetic acid 1 hour after administration; normal saline group 49 times
Protocol: ICR mice, male, 22-25 g, were fasted for food 2 h before administration, but can have water. All ICR mice were weighed and randomly grouped with the number of animals>10 per group. […] The mice were administered via intragastric administration according to the weight of mice. 1.5% acetic acid solution (0.1 ml/10 g) was intraperitoneally injected at 1 hour after administration, and the number of times of visceral pain in each group within 30 minutes was observed, the mice were counted once when the abdomen was concave, the trunk and hind legs were extended and the hips were elevated, and the number of times of these phenomena occurred within 30 min was finally counted.

[5] = tested on: hot plate induced pain model in rat; assay: Hot plate induced pain model in rat; format: in vivo, Sprague-Dawley rats; settings: 100 mg/kg intraperitoneal
Protocol: Male, mature and unmated healthy Sprague-Dawley rats were selected, and the temperature of the cold/hot plate (product model: PE34, US IITC) was adjusted to a constant temperature of 53±0.1° C., and rats with painful response such as foot licking, foot shaking or slight jumping within 5-10 s were screened (abandoned those who evaded and jumped). […] The tested compound was freshly formulated on the day of administration. A 0.9% NaCl normal saline solution was prepared as a vehicle, an appropriate amount of the test compound was added to the required volume of normal saline, and the mixture was fully suspended to prepare the drug at a concentration of 1 mg/ml. […] The latency of thermal pain was measured at 0.5 h, 1 h and 2 h after drug administration. To avoid scalding the animals on the hot plate, the maximum latency was set to 30 s. The analgesic effect of each compound was evaluated using the maximum possible effect (MPE), i.e. MPE %=[(Post drug latency-baseline latency)/(30−baseline latency)]×100. Statistics of MPE % at different time points.

[6] = tested on: SNL model in rat; assay: SNL model in rat, mechanical hyperalgesia test; format: in vivo, SD rats; settings: 100 mg/kg intragastric, 1 hour after administration; control group 3.967 ± 0.775
Protocol: SD rats were taken for surgery, male, SPF grade, mass 150 g-180 g. The surgical procedure was performed aseptically. The animals were anesthetized with sodium pentobarbital (50 mg/kg, intraperitoneal injection). The surgical area of the waist of animals was shaved, and the skin was disinfected three times with iodophor and 70% ethanol. Start the operation after the skin was dry. A longitudinal incision was made in the posterior part of the sacral bone of the animal's waist with a scalpel to expose the left paravertebral muscles, and the muscle tissue was separated with a distractor to expose the vertebra. The left spinal nerves L5 and L6 were separated, ligated with 6-0 silk thread, and the wounds were sutured. After the surgery, the animals were placed on an electric blanket and injected subcutaneously with 5 mL normal saline to prevent dehydration. When the animal was completely awake (free to move), put the animal back into the cage.
After the surgery, the animals were adapted in the experimental environment for 15 minutes/day for 3 days.
After administration, mechanical hyperalgesia test was performed. The rats were placed individually in a plexiglas box with a grid at the bottom of the box to ensure that the feet of the rats can be tested. Rats would adapt for 15 minutes before the test. […] The rapid paw withdrawal of the animal during the test was recorded as a pain response. The paw withdrawal of the animal when the test fiber left the animal's skin was also recorded as a pain response. If the animal moved or walked, it will not be recorded as a pain response, the test should be repeated. […]
Mechanical hyperalgesia was expressed as the paw withdrawal threshold (PWT) in the behavioral test of rats, which was calculated according to the following equation: 50% response threshold (g)=(10(^Xf+kδ))/10,000 • Xf=the final test fiber value used in the test • K=table value • δ=Average difference
Data were collected using Excel software and analyzed using Prism 6.01 (Graph pad software, Inc.) software.

T1 sequence (Q8BLA8 whole entry): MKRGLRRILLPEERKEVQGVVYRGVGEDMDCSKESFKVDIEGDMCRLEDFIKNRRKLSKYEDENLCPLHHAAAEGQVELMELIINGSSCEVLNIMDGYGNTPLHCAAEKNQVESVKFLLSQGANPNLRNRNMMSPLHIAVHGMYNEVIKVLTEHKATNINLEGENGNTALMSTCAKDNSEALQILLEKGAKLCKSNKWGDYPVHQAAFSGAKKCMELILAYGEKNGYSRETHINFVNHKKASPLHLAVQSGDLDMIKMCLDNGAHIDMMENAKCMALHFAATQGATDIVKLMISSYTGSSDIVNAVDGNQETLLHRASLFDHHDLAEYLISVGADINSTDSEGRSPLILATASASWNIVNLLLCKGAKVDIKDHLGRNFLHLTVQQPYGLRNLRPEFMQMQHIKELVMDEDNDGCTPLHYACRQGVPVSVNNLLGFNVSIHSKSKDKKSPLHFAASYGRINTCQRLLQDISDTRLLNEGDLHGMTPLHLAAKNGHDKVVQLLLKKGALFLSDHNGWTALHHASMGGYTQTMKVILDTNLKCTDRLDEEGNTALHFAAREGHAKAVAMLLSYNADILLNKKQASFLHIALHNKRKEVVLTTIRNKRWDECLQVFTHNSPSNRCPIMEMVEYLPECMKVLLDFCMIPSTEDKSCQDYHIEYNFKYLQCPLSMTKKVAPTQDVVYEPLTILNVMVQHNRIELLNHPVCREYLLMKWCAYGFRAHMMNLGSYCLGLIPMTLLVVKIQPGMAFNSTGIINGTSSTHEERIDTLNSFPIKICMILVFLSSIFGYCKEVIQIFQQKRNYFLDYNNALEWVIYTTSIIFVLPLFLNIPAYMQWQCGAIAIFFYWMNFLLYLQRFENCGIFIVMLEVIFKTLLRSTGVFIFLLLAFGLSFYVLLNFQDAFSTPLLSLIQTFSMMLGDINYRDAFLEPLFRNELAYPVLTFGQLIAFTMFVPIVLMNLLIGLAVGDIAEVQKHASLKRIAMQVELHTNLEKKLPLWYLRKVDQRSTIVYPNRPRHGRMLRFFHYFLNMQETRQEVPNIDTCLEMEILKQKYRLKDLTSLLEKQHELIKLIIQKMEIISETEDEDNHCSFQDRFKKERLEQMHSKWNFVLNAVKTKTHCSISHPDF

## CNCC[C@@H](Oc1cccc2ccccc12)c1cccs1 [R-Duloxetine, R-duloxetine]
[1]
  IC50: 21 to 50 µM

## CCCCN1CCCCC1C(=O)Nc1c(C)cccc1C (stereo not drawn) [Bupivacaine, bupivacaine]
[2]; 1 hour after administration, Normal Saline 3.561
  PWT: 11.587 g
[2]; 2 hours after administration, Normal Saline 3.382
  PWT: 4.448 g

## CNCC[C@H](Oc1cccc2ccoc12)c1cccs1 [Compound C1, (S)-3-(benzofuran-7-yloxy)-N-methyl-3-(thiophen-2-yl)propan-1-amine]
[3]
  ED50: 2.22 mg/kg

## CN1[C@H]2C[C@H](OC(=O)[C@H](CO)c3ccccc3)C[C@@H]1[C@@H](O)C2 [anisodamine, Anisodamine]
[4]
  number of visceral pains (writhing reactions) within 30 min: 27 times

## NCC1(CC(=O)O)CCCCC1 [Gabapentin, gabapentin]
[5]; 0.5 h
  MPE %: 6.47 ± 5.49%
[5]; 1 h
  MPE %: 14.56 ± 6.18%
[5]; 2 h
  MPE %: 22.66 ± 4.93%
[6]
  PWT: 6.352 ± 1.897 g
